{"source": "patent US4362736A", "about": "“Guanidinothiazole compounds, and medical compositions containing them” (Yamanouchi Pharmaceutical Co., Ltd., priority 1979, dated 1982)", "key": {"H2 -receptor": {"system": "H2 -receptor", "conditions": "Ash and Schild; Black et al.; cited from earlier work"}, "Gastric acid secretion [1]": {"system": "Gastric acid secretion", "assay": "Gastric acid secretion in anesthetized dogs (histamine-induced)", "assay_type": "in vivo, Mongrel dogs", "conditions": "Canis lupus familiaris, iv, histamine infusion 160 μg/Kg-hr, dose producing 50% inhibition of acid output", "description": "Mongrel dogs weighing 8 to 15 Kg were deprived of food for 24 hrs. and anesthetized intravenously with pentobarbital (30 mg/Kg). […] The gastric juice was collected from the gastric cannula by gravity drainage every 15 min. Test compounds were given intravenously after gastric secretion induced by a continuous intravenous infusion of histamine (160 μg/Kg-hr) reached a steady state."}, "Gastric acid secretion [2]": {"system": "Gastric acid secretion", "assay": "Gastric acid secretion in pylorus-ligated rats", "assay_type": "in vivo, Male Wister rats", "conditions": "Rattus norvegicus, intraduodenal, 4 hrs., probit method, read-out: (B) Pylorus-ligated rats ED50", "description": "Male Wister rats weighing about 200 g were deprived of food for 24 hrs. but allowed free access to water prior to the experiments in individual cages. […] Test compounds were intraduodenally given immediately after the ligation of pylorus. The animals were sacrificed 4 hrs. after drug administration and gastric contents were collected. […] The percent inhibition of gastric secretion by each dose of drugs was calculated from the acid outputs of control and of treated groups. ED50 values were determined by the probit method."}, "Acute toxicity in mice": {"assay": "Acute toxicity in mice", "conditions": "mouse, in vivo, iv, 7 days observation, up and down method; read-out: (C) LD50 in mice", "description": "Drugs were injected intravenously in male ICR mice weighing about 35 g at a rate of 0.1 ml/10 g/10 sec and the animals were kept under observation for 7 days. LD50 values were determined by the up and down method using 10 animals. The data are shown in Table I, under column entitled (C)."}}, "note": "Where a name gives a salt, the structure may show the parent alone.", "data": [{"smiles": "COc1ccc(CN(CCN(C)C)c2ccccn2)cc1", "note": "[mepyramine]", "values": [{"measurement": "inhibition of histamine effects on gastric acid secretion and heart rate in isolated guinea pig atrium", "setting": "H2 -receptor", "result": "not inhibited"}]}, {"smiles": "C/N=C(\\S)NCCSCc1[nH]cnc1C", "note": "[metiamide]", "values": [{"measurement": "inhibition of histamine effects on gastric acid secretion and heart rate in isolated guinea pig atrium", "setting": "H2 -receptor", "result": "antagonized"}]}, {"smiles": "NC(=O)N=C(N)CCSCc1csc(N=C(N)N)n1", "note": "[Example 9, N-carbamoyl-3-[(2-guanidinothiazol-4-yl)methylthio]propionamidine.di-hydrochloride]", "values": [{"measurement": "ED50", "setting": "Gastric acid secretion [1]", "result": "0.0064 ± 0.0006", "unit": "mg/kg"}, {"measurement": "ED50", "setting": "Gastric acid secretion [2]", "result": 12.7, "unit": "mg/kg"}, {"measurement": "LD50 at 168 h", "setting": "Acute toxicity in mice", "result": 97.8, "unit": "mg/kg"}]}, {"smiles": "N#CNC(=N)CCSCc1csc(NC(=N)N)n1", "note": "[Example 3, N-cyano-3-[(2-guanidinothiazol-4-yl)methylthio]propionamidine]", "values": [{"measurement": "ED50", "setting": "Gastric acid secretion [1]", "result": "0.0183 ± 0.0007", "unit": "mg/kg"}, {"measurement": "ED50", "setting": "Gastric acid secretion [2]", "result": 13.8, "unit": "mg/kg"}, {"measurement": "LD50 at 168 h", "setting": "Acute toxicity in mice", "result": 147, "unit": "mg/kg"}]}]}
